Laboratory results taken from patent US12582654B2, “Cyano-substituted pyridine and cyano-substituted pyrimidine compound and preparation method therefor and application thereof” (BEIJING SCITECH-MQ PHARMACEUTICALS LIMITED, priority 2019, dated 2026).

Experiments:
Ba/F3 ETV6-FGFR4 cells = molecular target: T1, Ba/F3 ETV6-FGFR4 cells (Homo sapiens, UniProt P22455); test: Inhibition of cell proliferation (CCK-8), Ba/F3 ETV6-FGFR4 cells; format: cell-based; conditions: 72 hours of incubation, read-out: Ba/F3 ETV6-FGFR4 IC50
T1 construct: fused on or other part: N-terminal part of ETV6 (TEL), the oligomerising partner that makes the FGFR4 kinase constitutively active; P41212 (Transcription factor ETV6)
Description: (§1) Compounds were assayed for inhibiting cell proliferation, and the specific method was as follows: • 1. Cells were cultured to a logarithmic growth phase, pipetted evenly, transferred to a 15 mL centrifuge tube, and centrifuged at 1000 rpm at room temperature for 4 minutes; • 2. The supernatant was discarded; 5 mL of complete medium was added and pipetted evenly; 10 μL of cell suspension was weighed, mixed well with 10 μL of 0.4% trypan blue, and counted under a cell counter; the proportion of living cells was ensured to be above 90%; • 3. The cell suspension was seeded into a 96-well plate (80 μL of cell suspension per well) according to the conditions shown in Table 5; in the outer 36 wells of the 96-well plate, no cells were added but only sterile water was added; only the inner 60 wells were used for cell assay and control; • 4. 5× compound dilution: the compounds were serially diluted 4-fold to give a total of 9 concentrations; 80-fold overall dilution was completed with complete medium, the resulting concentration was 5 times the final drug concentration, and DMSO concentration was 1.25%; • 5. 20 μL of the corresponding compounds with different concentrations were added to each well of assay wells of the 96-well plate; 20 μL of complete medium was added to positive and negative control wells and shaken well; and the final concentration of DMSO in each well was 0.25%; • 6. After 72 hours of incubation, 10 μL of CCK-8 reagent was added to each well and further incubated at 37° C. for 1-2 hours; and the OD value was read at 450 nm; 7. Cell survival rate (%)=[(As−Ab)/(Ac−Ab)]*100% • As: Assay well (medium containing cells, CCK-8, compound) • Ac: Control well (medium containing cells, CCK-8) • Ab: Blank well (medium without cell and compound, CCK-8) • 8. The values were imported into Graphpad Prism 5 software for IC50 calculation.

FGFR4 kinase = FGFR4 kinase (Homo sapiens, UniProt P22455); test: Inhibition of FGFR4 kinase activity (ULight-labeled JAK-1 peptide, EU665/EU615 reading); format: biochemical; conditions: FGFR4 kinase 3.85 nM, ATP 100 μM, enzymatic reaction 2 hours
Description: (§2) Assay of activity of small molecule compounds on inhibiting FGFR4 kinase and FGFR4 V550L mutant kinase. The assay method was as follows:
(§3) 1) Dilution of Compounds:
(§4) In a 96-well plate a, the compounds were serially diluted 3-fold with DMSO to form 11 concentrations, and the 12th concentration was pure DMSO (as a positive control); In a new 96-well plate b, the above solutions were diluted 25-fold with ultrapure water (DMSO concentration was 4%).
(§5) 2) Transferring Compounds to a 384-Well Plate:
(§6) The above solutions of compounds diluted with ultrapure water in the 96-well plate b were pipetted into corresponding wells of a 384-well plate.
(§7) 3) Adding 4× kinase solution: 2.5 μl of the above 4× kinase solutions were pipetted with a multi-channel pipette into corresponding reaction wells of the 384-well plate, and the mixture was mixed well and pre-reacted at room temperature for 5 minutes.
(§8) 4) Adding 2× substrate/ATP mixture: 5 μl of the above 2× substrate/ATP mixtures were pipetted with a multi-channel pipette into corresponding reaction wells of the 384-well plate.
(§9) 5) Negative control: negative control wells were set up in the 384-well plate by adding 2.5 μl of 4× substrate, 2.5 μl of 4× enzyme solution, 2.5 μl of 1× kinase Assay Buffer and 2.5 μl of ultrapure water containing 4% DMSO to each well.
(§10) 6) Centrifuging, mixing well, and reacting at room temperature in the dark for 2 hours.
(§11) 7) Terminating the Enzymatic Reaction:
(§12) 5 μl of the above 4× stop solutions were pipetted into corresponding wells of the 384-well plate, and the mixture was centrifuged, mixed well, and then reacted at room temperature for 5 minutes.
(§13) 8) Development of the Reaction:
(§14) 5 μl of the above 4× detection solutions were pipetted into corresponding wells of the 384-well plate, and the mixture was centrifuged, mixed well, and then reacted at room temperature for 1 hour.
(§15) 9) The 384-well plate was placed into a plate reader, and the signal was detected using the appropriate program.
(§16) 10) Analysis of IC50: Reading of well=10000*EU665 value/EU615 value Inhibition rate=(reading of positive control well−reading of assay well)/(reading of positive control well−reading of negative control well)*100%
(§17) The corresponding IC50 can be calculated by inputting the drug concentrations and corresponding inhibition rates into GraphPad Prism 5 and processing.
Assay Conditions for Screening FGFR4 Kinase Activity Inhibitory Molecule:
The final concentration of FGFR4 kinase in the reaction system was 3.85 nM, the final concentration of ATP was 100 μM, the final concentration of substrate ULight™-labeled JAK-1 (Tyr1023) Peptide was 100 nM, and the time for enzymatic reaction was 2 hours.
The highest final concentration of the compound in the reaction system was 2.5 μM. After serial 3-fold dilution, there were 11 concentrations in total, and the lowest final concentration was 0.042 nM. The final concentration of DMSO was 1%.

FGFR4 V550L kinase = FGFR4 V550L kinase (Homo sapiens, UniProt P22455, V550L); test: Inhibition of FGFR4 V550L mutant kinase activity (ULight-labeled PolyGT, EU665/EU615 reading); format: biochemical; conditions: FGFR4 V550L kinase 1 nM, ATP 10 μM, enzymatic reaction 2 hours
Description: as §2, §3, §4, §5, §6, §7, §8, §9, §10, §11, §12, §13, §14, §15, §16, §17
Assay Conditions for Screening FGFR4 V550L Kinase Activity Inhibitory Molecule:
The final concentration of FGFR4 V550L kinase in the reaction system was 1 nM, the final concentration of ATP was 10 μM, the final concentration of substrate ULight™-labeled PolyGT was 100 nM, and the time for enzymatic reaction was 2 hours.
The highest final concentration of the compound in the reaction system was 2.5 μM. After seral 3-fold dilution, there were 11 concentrations in total, and the lowest final concentration was 0.042 nM. The final concentration of DMSO was 1%.

[1] = molecular target: T2, Ba/F3 ETV6-FGFR4-V550L cells (Homo sapiens, UniProt P22455, V550L, cells depend on it); test: Inhibition of cell proliferation (CCK-8), Ba/F3 ETV6-FGFR4-V550L cells; format: cell-based; conditions: 72 hours of incubation, read-out: Ba/F3 ETV6-FGFR4-V550L IC50
T2 construct: fused on or other part: N-terminal part of ETV6 (TEL), the oligomerising partner of the fusion; already named as the first entry; P41212 (Transcription factor ETV6)
Description: as §1

T1 sequence (P22455 whole entry, change not shown, the tested form may be a part): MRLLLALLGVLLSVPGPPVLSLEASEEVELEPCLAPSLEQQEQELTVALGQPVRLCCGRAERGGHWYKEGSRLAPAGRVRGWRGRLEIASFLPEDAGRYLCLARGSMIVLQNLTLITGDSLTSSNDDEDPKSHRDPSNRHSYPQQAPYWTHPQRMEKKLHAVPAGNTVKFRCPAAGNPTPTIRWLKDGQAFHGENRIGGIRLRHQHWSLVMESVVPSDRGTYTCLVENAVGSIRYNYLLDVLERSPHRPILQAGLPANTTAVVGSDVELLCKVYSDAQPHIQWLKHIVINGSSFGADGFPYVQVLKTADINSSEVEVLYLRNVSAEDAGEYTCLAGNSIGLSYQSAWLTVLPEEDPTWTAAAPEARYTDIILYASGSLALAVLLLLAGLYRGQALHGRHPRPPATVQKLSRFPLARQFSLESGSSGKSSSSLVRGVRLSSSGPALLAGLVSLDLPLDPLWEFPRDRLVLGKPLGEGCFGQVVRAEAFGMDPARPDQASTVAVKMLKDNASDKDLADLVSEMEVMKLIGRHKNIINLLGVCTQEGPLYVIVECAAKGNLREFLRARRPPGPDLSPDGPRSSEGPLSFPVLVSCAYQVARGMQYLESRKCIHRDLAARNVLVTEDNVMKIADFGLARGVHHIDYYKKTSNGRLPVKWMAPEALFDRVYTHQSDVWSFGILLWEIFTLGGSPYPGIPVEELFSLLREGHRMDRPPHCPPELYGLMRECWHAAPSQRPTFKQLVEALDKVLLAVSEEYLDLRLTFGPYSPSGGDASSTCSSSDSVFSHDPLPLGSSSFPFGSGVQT
FGFR4 V550L kinase, sequence (P22455 22-802 V550L): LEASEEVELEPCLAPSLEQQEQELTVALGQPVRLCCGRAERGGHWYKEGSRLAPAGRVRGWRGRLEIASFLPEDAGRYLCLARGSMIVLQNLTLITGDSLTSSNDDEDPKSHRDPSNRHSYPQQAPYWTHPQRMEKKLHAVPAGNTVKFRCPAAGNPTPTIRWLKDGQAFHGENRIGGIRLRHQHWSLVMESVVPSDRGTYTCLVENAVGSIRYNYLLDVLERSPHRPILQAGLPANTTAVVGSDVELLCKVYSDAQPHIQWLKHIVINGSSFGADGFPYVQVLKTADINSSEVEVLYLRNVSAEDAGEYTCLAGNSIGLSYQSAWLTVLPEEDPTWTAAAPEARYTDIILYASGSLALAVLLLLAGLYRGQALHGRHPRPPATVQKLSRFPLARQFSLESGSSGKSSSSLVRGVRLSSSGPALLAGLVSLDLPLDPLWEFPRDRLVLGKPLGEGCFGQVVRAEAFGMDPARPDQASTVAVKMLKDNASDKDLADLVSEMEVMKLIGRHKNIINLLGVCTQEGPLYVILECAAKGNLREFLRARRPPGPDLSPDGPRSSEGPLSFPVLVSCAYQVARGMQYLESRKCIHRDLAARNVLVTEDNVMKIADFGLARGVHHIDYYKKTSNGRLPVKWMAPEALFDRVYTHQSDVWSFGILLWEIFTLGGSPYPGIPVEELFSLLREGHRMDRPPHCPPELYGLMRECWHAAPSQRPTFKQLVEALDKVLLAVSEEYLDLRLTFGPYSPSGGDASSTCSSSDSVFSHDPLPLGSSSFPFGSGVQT
FGFR4 kinase, sequence (P22455 22-802): as the sequence (P22455 22-802 V550L) above, with L529V counted along it
T2 sequence (P22455 whole entry V550L, the tested form may be a part): as the sequence (P22455 whole entry, change not shown, the tested form may be a part) above, with V550L counted along it

SMILES	GI50 (Ba/F3 ETV6-FGFR4 cells) [nM]	IC50 (FGFR4 kinase) [nM]	IC50 (FGFR4 V550L kinase) [nM]	GI50 [1] [nM]
C=CC(=O)Nc1cc(N2CCC(N3CCN(C)CC3)CC2)c(C)cc1Nc1ncc(C#N)c(Nc2ccccc2OC(C)C)n1 [Example 13, N-(2-((5-cyano-4-((2-isopropoxyphenyl)amino)pyrimidin-2-yl)amino)-4-methyl-5-(4-(4-methylpiperazin-1-yl)piperidin-1-yl)phenyl) acrylamide]	≤ 10	10 to 50	10 to 50	10 to 50
C=CC(=O)Nc1cc(N2CCN(C)CC2)c(F)cc1Nc1ncc(C#N)c(Nc2ccccc2OC(C)C)n1 [Example 14, N-(2-((5-cyano-4-((2-isopropoxyphenyl)amino)pyrimidin-2-yl)amino)-4-fluoro-5-(4-methylpiperazin-1-yl)phenyl) acrylamide]	≤ 10	50 to 100	10 to 50	≤ 10
C=CC(=O)Nc1cc(N2CCC(N(C)C)CC2)c(F)cc1Nc1ncc(C#N)c(Nc2ccccc2OC(C)C)n1 [Example 16, N-(2-((5-cyano-4-((2-isopropoxyphenyl)amino)pyrimidin-2-yl)amino)-5-(4-(dimethylamino)piperidin-1-yl)-4-fluorophenyl) acrylamide]	≤ 10	10 to 50	≤ 10	≤ 10
C=CC(=O)Nc1cc(N2CCC(N3CCCC3)CC2)c(F)cc1Nc1ncc(C#N)c(Nc2ccccc2OC(C)C)n1 [Example 17, N-(2-((5-cyano-4-((2-isopropoxyphenyl)amino)pyrimidin-2-yl)amino)-4-fluoro-5-(4-(pyrrolidin-1-yl)piperidin-1-yl)phenyl) acrylamide]	≤ 10	10 to 50	10 to 50	≤ 10
C=CC(=O)Nc1cc(N2CCC(N3CCOCC3)CC2)c(F)cc1Nc1ncc(C#N)c(Nc2ccccc2OC(C)C)n1 [Example 19, N-(2-((5-cyano-4-((2-isopropoxyphenyl)amino)pyrimidin-2-yl)amino)-4-fluoro-5-(4-morpholinopiperidin-1-yl)phenyl) acrylamide]	≤ 10	100 to 1000	10 to 50	≤ 10
C=CC(=O)Nc1cc(N2CCN(CC)CC2)ccc1Nc1ncc(C#N)c(Nc2cc(C)ccc2OC(C)C)n1 [Example 24, N-(2-((5-cyano-4-((2-isopropoxy-5-methylphenyl)amino)pyrimidin-2-yl)amino)-5-(4-ethylpiperazin-1-yl)phenyl) acrylamide]	10 to 50	10 to 50	10 to 50	≤ 10
C=CC(=O)Nc1cc(N2CCN(CC)CC2)ccc1Nc1ncc(C#N)c(Nc2cc(C(F)(F)F)ccc2OC(C)C)n1 [Example 26, N-(2-((5-cyano-4-((2-isopropoxy-5-(trifluoromethyl)phenyl)amino)pyrimidin-2-yl)amino)-5-(4-ethylpiperazin-1-yl)phenyl) acrylamide]	100 to 1000	100 to 1000	100 to 1000	100 to 1000

Next, values leading:

GI50 (Ba/F3 ETV6-FGFR4 cells) [nM]	IC50 (FGFR4 kinase) [nM]	IC50 (FGFR4 V550L kinase) [nM]	GI50 [1] [nM]	SMILES
≤ 10	50 to 100	10 to 50	≤ 10	C=CC(=O)Nc1cc(N2CCN(CC)CC2)c(F)cc1Nc1ncc(C#N)c(Nc2ccccc2OC(C)C)n1 [Example 15, N-(2-((5-cyano-4-((2-isopropoxyphenyl)amino)pyrimidin-2-yl)amino)-5-(4-ethylpiperazin-1-yl)-4-fluorophenyl) acrylamide]
≤ 10	10 to 50	10 to 50	≤ 10	C=CC(=O)Nc1cc(N2CCC(N3CCCCC3)CC2)c(F)cc1Nc1ncc(C#N)c(Nc2ccccc2OC(C)C)n1 [Example 18, N-(5-([1,4‘- bipiperidin]-1′-yl)-2-((5-cyano-4-((2-isopropoxyphenyl)amino)pyrimidin-2-yl)amino)-4-fluorophenyl) acrylamide]
≤ 10	10 to 50	10 to 50	≤ 10	C=CC(=O)Nc1cc(N2CCC(N3CCN(C)CC3)CC2)c(F)cc1Nc1ncc(C#N)c(Nc2ccccc2OC(C)C)n1 [Example 20, N-(2-((5-cyano-4-((2-isopropoxyphenyl)amino)pyrimidin-2-yl)amino)-4-fluoro-5-(4-(4-methylpiperazin-1-yl)piperidin-1-yl)phenyl) acrylamide]
≤ 10	10 to 50	10 to 50	10 to 50	C=CC(=O)Nc1cc(N2CCN(CC)CC2)ccc1Nc1ncc(C#N)c(Nc2c(F)cccc2OC(C)C)n1 [Example 21, N-(2-((5-cyano-4-((2-fluoro-6-isopropoxyphenyl)amino)pyrimidin-2-yl)amino)-5-(4-ethylpiperazin-1-yl)phenyl) acrylamide]
100 to 1000	100 to 1000	100 to 1000	100 to 1000	C=CC(=O)Nc1cc(N2CCN(CC)CC2)ccc1Nc1ncc(C#N)c(Nc2c(C)cccc2OC(C)C)n1 [Example 22, N-(2-((5-cyano-4-((2-isopropoxy-6-methylphenyl)amino)pyrimidin-2-yl)amino)-5-(4-ethylpiperazin-1-yl)phenyl) acrylamide]
≤ 10	50 to 100	≤ 10	≤ 10	C=CC(=O)Nc1cc(N2CCN(CC)CC2)ccc1Nc1ncc(C#N)c(Nc2cc(F)ccc2OC(C)C)n1 [Example 23, N-(2-((5-cyano-4-((5-fluoro-2-isopropoxyphenyl)amino)pyrimidin-2-yl)amino)-5-(4-ethylpiperazin-1-yl)phenyl) acrylamide]
10 to 50	50 to 100	10 to 50	10 to 50	C=CC(=O)Nc1cc(N2CCN(CC)CC2)ccc1Nc1ncc(C#N)c(Nc2cc(C#N)ccc2OC(C)C)n1 [Example 25, N-(2-((5-cyano-4-((5-cyano-2-isopropoxyphenyl)amino)pyrimidin-2-yl)amino)-5-(4-ethylpiperazin-1-yl)phenyl) acrylamide]
≤ 10	≤ 10	≤ 10	≤ 10	C=CC(=O)Nc1cc(N2CCN(CC)CC2)ccc1Nc1ncc(C#N)c(Nc2ccc(F)cc2OC(C)C)n1 [Example 27, N-(2-((5-cyano-4-((4-fluoro-2-isopropoxyphenyl)amino)pyrimidin-2-yl)amino)-5-(4-ethylpiperazin-1-yl)phenyl) acrylamide]
